In patent US8796457B2, “Compound useful for the treatment of degenerative and inflammatory diseases” (Galapagos NV, priority 2009, dated 2014):
Where two headings read alike, the source gives them in different places.

How the values were obtained:
[1] = target: Recombinant human JAK3 catalytic domain (Homo sapiens (Human), UniProt P52333); assay: JAK3 inhibition assay; type: biochemical; conditions: average ± standard error of the mean; 1 μM ATP
Description: Recombinant human JAK3 catalytic domain (amino acids 781-1124; catalog number PV3855) was purchased from Invitrogen. 0.025 mU of JAK3 was incubated with 2.5 μg polyGT substrate (Sigma catalog number P0275) in kinase reaction buffer (25 mM Tris pH 7.5, 0.5 mM EGTA, 0.5 mM Na3VO4, 5 mM b-glycerolphosphate, 0.01% Triton X-100, 1 μM non-radioactive ATP, 0.25 μCi ^33P-gamma-ATP (GE Healthcare, catalog number AH9968) final concentrations) with or without 5 μL containing test compound or vehicle (DMSO, 1% final concentration), in a total volume of 25 μL, in a polypropylene 96-well plate (Greiner, V-bottom). After 105 min at 30° C., reactions were stopped by adding of 25 μL/well of 150 mM phosphoric acid. […] 40 μL/well of Microscint-20 was added, the top of the plates was sealed and readout was performed using the Topcount (Perkin Elmer). Kinase activity was calculated by subtracting counts per minute (cpm) obtained in the presence of a positive control inhibitor (10 μM staurosporine) from cpm obtained in the presence of vehicle. The ability of a test compound to inhibit this activity was determined as: Percentage inhibition=((cpm determined for sample with test compound present−cpm determined for sample with positive control inhibitor) divided by (cpm determined in the presence of vehicle−cpm determined for sample with positive control inhibitor))*100. […]

[2] = system: JAK2 dependent pathway (GM-CSF induced IL-8) in human whole blood; assay: Whole blood assay, GM-CSF stimulation, IL-8 ELISA; type: cell-based; conditions: 6 blood donors, ± SEM, read-out: pIC50 for inhibition of GM-CSF induced increase of IL-8 (converted)
Description: For GM-CSF stimulation, increase in interleukin-8 (IL-8) levels in plasma was measured using an IL-8 ELISA assay. Granulocyte macrophage-colony stimulating factor (GM-CSF)—induced interleukin 8 (IL-8) expression is a JAK2-mediated event.
The increase in IL-8 levels in plasma was measured using an IL-8 ELISA assay.
10 μg GM-CSF was dissolved in 100 μL H2O to obtain a 100 μg/mL stock solution. The stock solution was stored at −20° C.
A 3-fold dilution series of the test compound was prepared in DMSO (highest concentration: 10 mM).
Human blood was collected in heparinized tubes. The blood was divided in aliquots of 245 μL. […] The GM-CSF stock solution was diluted 100-fold in RPMI medium to obtain a 1 μg/mL work solution. […] The samples were incubated at 37° C. for 2 h.
The samples were centrifuged for 15 min at 1,000 g, 4° C. 100 μL of the plasma was harvested and stored at −80° C. until further use.
The Human IL-8 Chemiluminescent Immunoassay kit from R&D Systems (Cat. n°: Q8000B) was used to determine IL-8 levels.
Wash buffer was prepared by diluting 10× wash buffer in H2O. Working glo reagent was prepared by adding 1 part Glo Reagent 1 to 2 parts Glo Reagent B 15 min to 4 h before use.
100 μL assay diluent RD1-86 was added to each well. After that, 50 μL of sample (plasma) was added. […] Luminescence was measured (0.5 s/well read time).

[3] = Microsomal stability, human; type: in vitro ADME; conditions: human liver microsomes, 3 μM compound, 37° C.
Description: A 10 mM stock solution of compound in DMSO was diluted 1000 fold in a 182 mM phosphate buffer pH7.4 in a 96 deep well plate (Greiner, Cat no. 780285) and pre-incubated at 37° C.
40 μL of deionised water was added to a well of a polypropylene Matrix 2D barcode labelled storage tube (Thermo Scientific) and pre-incubated at 37° C.
A Glucose-6-phophate-dehydrogenase (G6PDH) working stock solution was prepared in 182 mM phosphate buffer pH7.4 and placed on ice before use. A co-factor containing MgCl2, glucose-6-phosphate and NADP+ was prepared in deionised water and placed on ice before use. […]
These plates were sealed with sealing mats (MA96RD-04S) of www.kinesis.co.uk and samples were measured at room temperature on LCMS (ZQ 1525 from Waters) under optimized conditions using Quanoptimize to determine the appropriate mass of the parent molecule.
The samples were analyzed on LCMS with a flow rate of 1 mL/min. […]
Peak area from the parent compound at time 0 was considered to be 100% remaining. The percentage remaining after 1 hour incubation was calculated from time 0 and was calculated as the percentage remaining. […]
The data on microsomal stability are expressed as a percentage of the total amount of compound remaining after 60 minutes.

Chain of Recombinant human JAK3 catalytic domain (P52333 781-1124): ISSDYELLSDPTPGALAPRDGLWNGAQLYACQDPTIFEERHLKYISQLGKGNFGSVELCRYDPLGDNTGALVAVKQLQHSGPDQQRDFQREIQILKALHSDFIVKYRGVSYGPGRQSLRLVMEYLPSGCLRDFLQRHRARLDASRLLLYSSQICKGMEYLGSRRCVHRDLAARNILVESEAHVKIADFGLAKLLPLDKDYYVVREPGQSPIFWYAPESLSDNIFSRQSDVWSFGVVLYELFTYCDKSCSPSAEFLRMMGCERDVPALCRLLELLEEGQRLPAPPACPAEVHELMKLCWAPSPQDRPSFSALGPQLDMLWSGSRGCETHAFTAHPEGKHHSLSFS

**Q.** For CC1(C)CN(C(=O)c2ccc(-c3cccc4nc(NC(=O)C5CC5)nn34)cc2)C1 [Compound 1, Cyclopropanecarboxylic acid{5-[4-(3,3-dimethyl-azetidine-1-carbonyl)-phenyl]-[1,2,4]triazolo[1,5-a]pyridin-2-yl}-amide], which IC50 [1] is on record?
**A.** 0.408 ± 0.062 µM

**Q.** What about the IC50 ([2]; additional data analysis protocol (R2 > 0.8, hill slope < 3)) of the same compound?
**A.** 10.7 µM

**Q.** What about the IC50 ([2]; human whole blood) of the same compound?
**A.** 13.5 µM

**Q.** What about the “Microsomal stability, percentage of compound remaining after 60 minutes, Human” value [3] of the same compound?
**A.** 76-100%
